From ChEMBL document CHEMBL1201862, “PubChem BioAssay data set” (2004)
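Method: 48-hour compound exposure of cells in 96-well plates, five concentrations, linear interpolation of endpoints. GI50 = concentration required for 50% inhibition of growth.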 Activity calls are given as the source filed them. Cut-off read from the data, not from the text of the source: active = GI50 up to about 1.1 µM and inactive = higher.

Assays:
Assay in all cases: inhibition of tumour cell growth, NCI panel, 48 h
NCI-H460 = test system: NCI-H460
SK-OV-3 = test system: SK-OV-3
A549 = test system: A549
KM-20L2 = test system: KM-20L2
HOP-62 = test system: HOP-62
UO-31 = test system: UO-31
HOP-92 = test system: HOP-92
ACHN = test system: ACHN
CCRF-CEM = test system: CCRF-CEM
LOX IMVI = test system: LOX IMVI
SK-MEL-5 = test system: SK-MEL-5
SF-295 = test system: SF-295
HCT-15 = test system: HCT-15
KM12 = test system: KM12
SNB-75 = test system: SNB-75
DLD-1 = test system: DLD-1
SK-MEL-2 = test system: SK-MEL-2
A498 = test system: A498
COLO 205 = test system: COLO 205
DMS-114 = test system: DMS-114
XF498 = test system: XF498
UACC-62 = test system: UACC-62
SNB-19 = test system: SNB-19
NCI-H23 = test system: NCI-H23
RPMI-8226 = test system: RPMI-8226
UACC-257 = test system: UACC-257
M14 = test system: M14
DMS-273 = test system: DMS-273
SF-268 = test system: SF-268
RXF 631 = test system: RXF 631
K562 = test system: K562
OVCAR-4 = test system: OVCAR-4
SK-MEL-28 = test system: SK-MEL-28
SW-620 = test system: SW-620
SNB-78 = test system: SNB-78
CAKI-1 = test system: CAKI-1
HL-60 = test system: HL-60
MOLT-4 = test system: MOLT-4
786-0 = test system: 786-0
U-251 = test system: U-251
M19-MEL = test system: M19-MEL
OVCAR-3 = test system: OVCAR-3
SR = test system: SR
RXF 393 = test system: RXF 393
EKVX = test system: EKVX
SF-539 = test system: SF-539
HCT-116 = test system: HCT-116
TK-10 = test system: TK-10
SN12C = test system: SN12C
OVCAR-8 = test system: OVCAR-8
NCI-H522 = test system: NCI-H522
NCI-H226 = test system: NCI-H226
HT-29 = test system: HT-29
OVCAR-5 = test system: OVCAR-5
IGROV-1 = test system: IGROV-1
LXFL 529 = test system: LXFL 529
Malme-3M = test system: Malme-3M
PC-3 = test system: PC-3
HOP-18 = test system: HOP-18
BT-549 = test system: BT-549
MDA-MB-231 = test system: MDA-MB-231
HCC 2998 = test system: HCC 2998

Measured: GI50

c1ccc(CN(Cc2ccccn2)Cn2cccn2)nc1
28.7 µM: HCT-15
inactive: NCI-H460 41.2 µM | SK-OV-3 43 µM | A549 54.6 µM | KM-20L2 51.5 µM | HOP-62 > 100 µM | UO-31 79.6 µM | HOP-92 52.6 µM | ACHN 33 µM | CCRF-CEM 29.5 µM | LOX IMVI 67.6 µM | SK-MEL-5 43.9 µM | SF-295 62.7 µM | KM12 63.8 µM | SNB-75 > 100 µM | DLD-1 30.2 µM | SK-MEL-2 > 100 µM | A498 38.2 µM | COLO 205 57.1 µM | DMS-114 22.1 µM | XF498 60 µM | UACC-62 20.3 µM | SNB-19 > 100 µM | NCI-H23 50.5 µM | RPMI-8226 28.9 µM | UACC-257 39 µM | M14 25.9 µM | DMS-273 35.7 µM | SF-268 76.6 µM | RXF 631 38 µM | K562 36.6 µM | OVCAR-4 > 100 µM | SK-MEL-28 15.7 µM | SW-620 48 µM | SNB-78 > 100 µM | CAKI-1 > 100 µM | HL-60 22.9 µM | MOLT-4 29.2 µM | 786-0 91.2 µM | U-251 39.2 µM | M19-MEL 35 µM | OVCAR-3 > 100 µM | SR 33.4 µM | RXF 393 57.5 µM | EKVX 34.9 µM | SF-539 > 100 µM | HCT-116 22.5 µM | TK-10 > 100 µM | SN12C 47.9 µM | OVCAR-8 32.8 µM | NCI-H522 > 100 µM

Cc1ccc2nc(/C(=C/c3ccc(/C=C(\NC(=O)c4ccccc4)c4nc5ccc(C)cc5[nH]4)c(C)c3)NC(=O)c3ccccc3)[nH]c2c1
inactive: NCI-H226 26.4 µM | NCI-H460 13.2 µM | SK-OV-3 13.7 µM | A549 6.14 µM | KM-20L2 20.3 µM | HOP-62 46.6 µM | UO-31 9.12 µM | HOP-92 16.4 µM | ACHN 8.45 µM | CCRF-CEM 3.02 µM | HT-29 28.1 µM | SK-MEL-5 1.91 µM | KM12 17.1 µM | SNB-75 7.08 µM | DLD-1 3.02 µM | SK-MEL-2 5.13 µM | A498 11.4 µM | COLO 205 25.1 µM | DMS-114 7.57 µM | XF498 3.76 µM | OVCAR-5 19.6 µM | UACC-62 1.14 µM | SNB-19 31.2 µM | NCI-H23 19.7 µM | RPMI-8226 16.6 µM | M14 23 µM | DMS-273 22.6 µM | SF-268 3.45 µM | RXF 631 19.2 µM | SK-MEL-28 25.2 µM | SW-620 5.92 µM | SNB-78 23.1 µM | CAKI-1 35.2 µM | IGROV-1 1.81 µM | 786-0 9.02 µM | U-251 22.7 µM | M19-MEL 4.36 µM | OVCAR-3 6.19 µM | SR 27.2 µM | EKVX 12.5 µM | SF-539 10.2 µM | HCT-116 18.1 µM | LXFL 529 1.5 µM | TK-10 47.1 µM | SN12C 5.5 µM | Malme-3M 7.29 µM | OVCAR-8 7.01 µM | NCI-H522 22.2 µM
3.13 µM: HCT-15
active: K562 0.785 µM | MOLT-4 0.383 µM

CC1CCC2C(C)C(=O)OC3OC4(C)CCC1C32OO4 (configuration not stated)
98.4 µM: HCT-15
inactive: SK-OV-3 > 100 µM | A549 89.1 µM | KM-20L2 > 100 µM | UO-31 82.2 µM | CCRF-CEM 83 µM | LOX IMVI 97.9 µM | SK-MEL-5 > 96.2 µM | SF-295 > 100 µM | SNB-75 61.7 µM | SK-MEL-2 > 100 µM | DMS-114 > 80.4 µM | XF498 > 100 µM | RPMI-8226 53.2 µM | PC-3 66.8 µM | HOP-18 61.8 µM | BT-549 86.5 µM | M14 > 100 µM | DMS-273 > 100 µM | SF-268 > 100 µM | RXF 631 > 100 µM | K562 33.1 µM | OVCAR-4 > 72.8 µM | SNB-78 > 100 µM | CAKI-1 > 100 µM | HL-60 37.4 µM | MDA-MB-231 62.4 µM | HCC 2998 > 100 µM | IGROV-1 > 88.9 µM | MOLT-4 66.1 µM | M19-MEL > 100 µM | OVCAR-3 > 67.3 µM | RXF 393 72.9 µM | EKVX > 97.1 µM | SF-539 > 100 µM | HCT-116 81.7 µM | LXFL 529 65.5 µM | SN12C > 92.3 µM | Malme-3M > 100 µM | NCI-H522 45.1 µM
